Assay results published in US12234466B2, “Aspergillus microorganism carrying disruptions of multiple genes and a method of producing thereof” (KIKKOMAN CORPORATION, priority 2018, dated 2025).

What was measured:
[1] = test system: Aspergillus oryzae RIB40 strain; assay: Growth on Sabouraud Dextrose Agar containing 5-FAA and 1 mM tryptophan; type: cell-based
Experimental: (§1) The AotrpC-disrupted strain and Aspergillus oryzae RIB40 strain as a control were inoculated onto the plates of Sabouraud Dextrose Agar medium (BD) containing 0.12% (w/v) 5-FAA and 1 mM tryptophan, respectively. The plates were incubated at 30° C. for 4 days.
(§2) When the concentration of 5-FAA was changed to 0.1% (w/v), both the AotrpC-disrupted and RIB40 strains grew on the plates.

[2] = test system: Aspergillus sojae NBRC4239 strain; assay: Growth on potato dextrose agar containing 5-FAA and 1 mM tryptophan; type: cell-based
Experimental: (§3) The AstrpC-disrupted strain and Aspergillus sojae NBRC4239 strain as a control were inoculated onto the plates of potato dextrose agar medium (Nissui Pharmaceutical Co., Ltd.) containing 0.04% (w/v) 5-FAA and 1 mM tryptophan, respectively. The plates were incubated at 30° C. for 4 days. […] In addition, 5-FAA (5-fluoroanthranilic acid; Tokyo Chemical Industry Co., Ltd.) was prepared to become a 10% solution using ethanol, and the solution was added to the medium to ensure that the final concentration became the above-mentioned concentration.
(§4) When the concentration of 5-FAA was changed to 0.02% (w/v), both AstrpC-disrupted and NBRC4239 strains grew on the plates.

[3] = test system: AotrpC-disrupted strain; assay: Growth on Sabouraud Dextrose Agar containing 5-FAA and 1 mM tryptophan; type: cell-based, Aspergillus oryzae
Experimental: as §1, §2

[4] = test system: AstrpC-disrupted strain; assay: Growth on potato dextrose agar containing 5-FAA and 1 mM tryptophan; type: cell-based, Aspergillus sojae
Experimental: as §3, §4

[5] = 0.12% (w/v) 5-FAA, 30° C., 4 days
[6] = 0.04% (w/v) 5-FAA, 30° C., 4 days

SMILES: Nc1ccc(F)cc1C(=O)O [5-FAA, 5-fluoroanthranilic acid]
- growth of RIB40 strain ([1]; 0.1% (w/v) 5-FAA): grew
- growth of RIB40 strain [1, 5]: did not grow at all
- growth of NBRC4239 strain ([2]; 0.02% (w/v) 5-FAA): grew
- growth of NBRC4239 strain [2, 6]: did not grow at all
- growth of AotrpC-disrupted strain ([3]; 0.1% (w/v) 5-FAA): grew
- growth of AotrpC-disrupted strain [3, 5]: grew
- growth of AstrpC-disrupted strain ([4]; 0.02% (w/v) 5-FAA): grew
- growth of AstrpC-disrupted strain [4, 6]: grew
